Source: PubChem BioAssay (NCI)
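Following 48 hours of exposure in 96-well plates, responses at five concentrations were used to interpolate endpoints linearly. Here, GI50 denotes the concentration required for 50% inhibition of growth. TGI: total growth inhibition.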

Columns and labels:
Assay in all cases: NCI-60 cell line screen, 48 h
786-0 renal = test system: 786-0 renal
A498 renal = test system: A498 renal
A549 NSCLC = test system: A549 NSCLC
ACHN renal = test system: ACHN renal
BT-549 breast = test system: BT-549 breast
CAKI-1 renal = test system: CAKI-1 renal
CCRF-CEM leukemia = test system: CCRF-CEM leukemia
COLO 205 colon = test system: COLO 205 colon
DU-145 prostate = test system: DU-145 prostate
EKVX NSCLC = test system: EKVX NSCLC
HCC-2998 colon = test system: HCC-2998 colon
HCT-116 colon = test system: HCT-116 colon
HCT-15 colon = test system: HCT-15 colon
HL-60(TB) leukemia = test system: HL-60(TB) leukemia
HOP-62 NSCLC = test system: HOP-62 NSCLC
HOP-92 NSCLC = test system: HOP-92 NSCLC
HS 578T breast = test system: HS 578T breast
HT29 colon = test system: HT29 colon
IGROV1 ovarian = test system: IGROV1 ovarian
K-562 leukemia = test system: K-562 leukemia
KM12 colon = test system: KM12 colon
LOX IMVI melanoma = test system: LOX IMVI melanoma
M14 melanoma = test system: M14 melanoma
MALME-3M melanoma = test system: MALME-3M melanoma
MCF7 breast = test system: MCF7 breast
MDA-MB-231 breast = test system: MDA-MB-231 breast
MDA-MB-435 = test system: MDA-MB-435
MOLT-4 leukemia = test system: MOLT-4 leukemia
NCI-H226 lung = test system: NCI-H226 lung
NCI-H23 lung = test system: NCI-H23 lung
NCI-H460 lung = test system: NCI-H460 lung
NCI-H522 lung = test system: NCI-H522 lung
NCI/ADR-RES ovarian = test system: NCI/ADR-RES ovarian
OVCAR-3 ovarian = test system: OVCAR-3 ovarian
OVCAR-4 ovarian = test system: OVCAR-4 ovarian
OVCAR-5 ovarian = test system: OVCAR-5 ovarian
OVCAR-8 ovarian = test system: OVCAR-8 ovarian
PC-3 prostate = test system: PC-3 prostate
RPMI-8226 leukemia = test system: RPMI-8226 leukemia
SF-268 CNS = test system: SF-268 CNS
SF-295 CNS = test system: SF-295 CNS
SF-539 CNS = test system: SF-539 CNS
SK-MEL-2 melanoma = test system: SK-MEL-2 melanoma
SK-MEL-28 melanoma = test system: SK-MEL-28 melanoma
SK-MEL-5 melanoma = test system: SK-MEL-5 melanoma
SK-OV-3 ovarian = test system: SK-OV-3 ovarian
SN12C renal = test system: SN12C renal
SNB-19 CNS = test system: SNB-19 CNS
SNB-75 CNS = test system: SNB-75 CNS
SR leukemia = test system: SR leukemia
SW-620 colon = test system: SW-620 colon
T-47D breast = test system: T-47D breast
TK-10 renal = test system: TK-10 renal
U251 CNS = test system: U251 CNS
UACC-257 melanoma = test system: UACC-257 melanoma
UACC-62 melanoma = test system: UACC-62 melanoma
UO-31 renal = test system: UO-31 renal

For Brc1cccc(-c2cc(-c3ccc4nccnc4c3)[nH]n2)c1, the GI50 (786-0 renal) was 1660 nM, the TGI (786-0 renal) was > 250000 nM and the GI50 (A498 renal) was 418 nM. The TGI (A498 renal) was 1860 nM, the GI50 (A549 NSCLC) was 860 nM and the TGI (A549 NSCLC) was > 250000 nM. For the same molecule, the GI50 (ACHN renal) was 1720 nM, the TGI (ACHN renal) was > 250000 nM and the GI50 (BT-549 breast) was 2150 nM. For the same molecule, the TGI (BT-549 breast) was > 250000 nM, the GI50 (CAKI-1 renal) was 599 nM and the TGI (CAKI-1 renal) was > 250000 nM. For the same molecule, the GI50 (CCRF-CEM leukemia) was 864 nM, the TGI (CCRF-CEM leukemia) was > 250000 nM and the GI50 (COLO 205 colon) was 286 nM. The TGI (COLO 205 colon) was 3930 nM, the GI50 (DU-145 prostate) was 1090 nM and the TGI (DU-145 prostate) was > 200000 nM. For the same molecule, the GI50 (EKVX NSCLC) was 4240 nM, the TGI (EKVX NSCLC) was > 250000 nM and the GI50 (HCC-2998 colon) was 3250 nM. The TGI (HCC-2998 colon) was > 250000 nM, the GI50 (HCT-116 colon) was 603 nM and the TGI (HCT-116 colon) was > 84200 nM. For the same molecule, the GI50 (HCT-15 colon) was 165 nM, the TGI (HCT-15 colon) was > 250000 nM and the GI50 (HL-60(TB) leukemia) was 519 nM. For the same molecule, the TGI (HL-60(TB) leukemia) was 1750 nM, the GI50 (HOP-62 NSCLC) was 1020 nM and the TGI (HOP-62 NSCLC) was > 250000 nM. For the same molecule, the GI50 (HOP-92 NSCLC) was 4540 nM, the TGI (HOP-92 NSCLC) was > 250000 nM and the GI50 (HS 578T breast) was 1020 nM. The TGI (HS 578T breast) was > 250000 nM, the GI50 (HT29 colon) was 174 nM and the TGI (HT29 colon) was > 165000 nM. The GI50 (IGROV1 ovarian) was 877 nM, the TGI (IGROV1 ovarian) was > 250000 nM and the GI50 (K-562 leukemia) was 215 nM. The TGI (K-562 leukemia) was > 250000 nM, the GI50 (KM12 colon) was 153 nM and the TGI (KM12 colon) was > 94700 nM. For the same molecule, the GI50 (LOX IMVI melanoma) was 1420 nM, the TGI (LOX IMVI melanoma) was > 250000 nM and the GI50 (M14 melanoma) was 430 nM. For the same molecule, the TGI (M14 melanoma) was > 250000 nM, the GI50 (MALME-3M melanoma) was 1300 nM and the TGI (MALME-3M melanoma) was > 250000 nM. For the same molecule, the GI50 (MCF7 breast) was 413 nM, the TGI (MCF7 breast) was > 250000 nM and the GI50 (MDA-MB-231 breast) was 2940 nM. It also gave a TGI (MDA-MB-231 breast) of 23700 nM, a GI50 (MDA-MB-435) of 74.3 nM and a TGI (MDA-MB-435) of 412 nM. The GI50 (MOLT-4 leukemia) was 1520 nM, the TGI (MOLT-4 leukemia) was > 145000 nM and the TGI (NCI-H226 lung) was > 250000 nM. For the same molecule, the GI50 (NCI-H23 lung) was 1330 nM, the TGI (NCI-H23 lung) was > 250000 nM and the GI50 (NCI-H460 lung) was 729 nM. The TGI (NCI-H460 lung) was > 60000 nM, the GI50 (NCI-H522 lung) was 412 nM and the TGI (NCI-H522 lung) was > 250000 nM. It also gave a GI50 (NCI/ADR-RES ovarian) of 318 nM, a TGI (NCI/ADR-RES ovarian) of 34300 nM and a GI50 (OVCAR-3 ovarian) of 485 nM. For the same molecule, the GI50 (OVCAR-4 ovarian) was 2050 nM, the TGI (OVCAR-4 ovarian) was > 250000 nM and the GI50 (OVCAR-5 ovarian) was 2640 nM. For the same molecule, the TGI (OVCAR-5 ovarian) was > 250000 nM, the GI50 (OVCAR-8 ovarian) was 1390 nM and the TGI (OVCAR-8 ovarian) was > 250000 nM. For the same molecule, the GI50 (PC-3 prostate) was 680 nM, the TGI (PC-3 prostate) was > 250000 nM and the GI50 (RPMI-8226 leukemia) was 865 nM. For the same molecule, the TGI (RPMI-8226 leukemia) was 76400 nM, the GI50 (SF-268 CNS) was 3680 nM and the TGI (SF-268 CNS) was > 250000 nM. For the same molecule, the GI50 (SF-295 CNS) was 1110 nM, the TGI (SF-295 CNS) was > 250000 nM and the GI50 (SF-539 CNS) was 764 nM. The TGI (SF-539 CNS) was 3280 nM, the GI50 (SK-MEL-2 melanoma) was 1550 nM and the TGI (SK-MEL-2 melanoma) was > 250000 nM. The GI50 (SK-MEL-28 melanoma) was 4870 nM, the TGI (SK-MEL-28 melanoma) was > 250000 nM and the GI50 (SK-MEL-5 melanoma) was 783 nM. For the same molecule, the TGI (SK-MEL-5 melanoma) was 11700 nM, the GI50 (SK-OV-3 ovarian) was 845 nM and the TGI (SK-OV-3 ovarian) was > 250000 nM. The GI50 (SN12C renal) was 1390 nM, the TGI (SN12C renal) was > 250000 nM and the GI50 (SNB-19 CNS) was 1410 nM. For the same molecule, the TGI (SNB-19 CNS) was > 250000 nM, the GI50 (SNB-75 CNS) was 674 nM and the TGI (SNB-75 CNS) was 2380 nM. The GI50 (SR leukemia) was 139 nM, the TGI (SR leukemia) was > 104000 nM and the GI50 (SW-620 colon) was 273 nM. The TGI (SW-620 colon) was > 250000 nM, the GI50 (T-47D breast) was 1240 nM and the TGI (T-47D breast) was > 250000 nM. The GI50 (TK-10 renal) was 2950 nM, the TGI (TK-10 renal) was > 250000 nM and the GI50 (U251 CNS) was 938 nM. The TGI (U251 CNS) was 75200 nM, the TGI (UACC-257 melanoma) was > 250000 nM and the GI50 (UACC-62 melanoma) was 1350 nM. For the same molecule, the TGI (UACC-62 melanoma) was > 250000 nM, the GI50 (UO-31 renal) was 1900 nM and the TGI (UO-31 renal) was > 250000 nM.
